Results: patent publication US7378274B2, “Regulatory nucleic acid for the ABC1 gene, molecules modifying its activity and therapeutic uses” (Aventis Pharma S.A., priority 2000, dated 2008)

Columns and labels:
human ABC1 promoter = assay: Luciferase reporter under control of the -200 bp human ABC1 promoter (wild type or E-box mutant), transfected RAW 264.7 cells; format: cell-based; details: 24 hours, 10 μM 9CRA, 2 μg/ml 22(R)-HOch
Description: Plasmids containing mutant SP1, AP1, E-box, LXR and deleted E-box fragments were constructed by site-directed mutagenesis using the overlap PCR method and the PXP1 −995 to +120 bp construct (Previato et al., JBC, 1991, 266:18958-63) as template. The primers listed below were used to amplify −200 to +44 bp of the human ABC1 promoter. Upper-case letters represent wild-type sequence whereas lower-case letters represent mutant sequence.
S224-HindIII and 44-HindIII were the upstream and downstream primers used for overlap PCR. The Hind III sites are underlined. The resulting fragments which spanned −200 to +44 of the human ABC1 gene were ligated into the HindIII site of the PXP1 luciferase reporter plasmid (Nordeen et al., Biotechniques, 1988, 6:454-457). All constructs were confirmed by sequencing.
Murine macrophage RAW 264.7 cells and human embryonic kidney 293 cells (American Type Culture Collection, Rockville, Md.) were grown in Dulbecco's modified Eagle's medium (DMEM) with 10% fetal calf serum (FCS). Approximately 1.5×10^5 cells were plated in 12-well plates (Costar, Corning, N.Y.), grown to 50-70% confluency and cotransfected with 1.5 μg of the ABC1 promoter-luciferase plasmid and 0.5 μg of the β-galactosidase vector (pCMVβ;Clontech, Palo Alto, Calif.) by using the Superfectin Reagent Kit (Qiagen, Valencia, Calif.). […]

[1] = system: regulatory nucleic acid for the human ABC1 gene; assay: Luciferase reporter under control of the -995 to +120 regulatory nucleic acid for the human ABC1 gene, transfected Hepa1-6 cells; format: cell-based
Description: The region of the regulatory acid for the human ABC1 gene which ranges from the nucleotide at position −-995 up to the nucleotide at position +120, with respect to the transcription start site, was amplified by the PCR technique, with the aid of the following pair of primers: • forward primer S995 (SEQ ID No. 12), of sequence 5′-TTGCCGTCGACTGTTTTGGGTAGTTT-3′; and • reverse primer +220R (SEQ ID No. 13), of sequence 5′-GCCCTGTCGACCGGCTCTGTTGGT-3′, • From human genomic DNA present in a BAC vector from a collection of human BAC vectors.
The DNA fragment amplified was digested with the restriction endonuclease Sal 1, and then inserted into the vector PXP1 described by Nordeen et al. (1988, BioTechniques, 6: 454-457), at the Sal 1 restriction site of this vector.
Cells of the Hepa1-6 line (ATCC, Rockville, Md., USA) were cultured in the medium E-MEM (Minimum Essential Medium with Earle's Salts), to which 10% (v/v) of fetal calf serum (BioWhittaker, Walkersville, Md.) was added.
Approximately 1.5×10^5 cells were distributed into each of the wells of a 12-well (2.5 cm) culture plate, and were cultured until approximately 50 to 70% confluence, and were then cotransformed with 1 μg of the plasmid Sal-Lucif and 0.5 μg of the control vector pBetagel (CloneTech Laboratories Inc., Palo Alto, Calif., USA) using the Superfectin Reagent Kit pack (QIAGEN Inc., Valencia, Calif., USA). Two hours after adding the DNA, the culture medium was removed, and replaced with complete AMEM (Minimum Essential Medium Eagle's Alpha Modification) medium. […]
Freshly thawed aliquot fractions were used to quantify the proteins, using the MicroBCA Kit pack (Pierce, Rockford, Ill., USA), as well as to quantify the luciferase and beta-galactosidase production, using, respectively, the Tropix Luciferase Assay Kit and Galacto-Light Plus Kit packs. […]

USF1 and USF2 = assay: Western analysis of USF1 and USF2 in RAW cell nuclear extracts; format: cell-based; details: RAW cells stimulated with cholesterol or oxysterols
Protocol: RAW cell nuclear extracts (35 μg protein per lane) from cells stimulated with cholesterol or 22-R-hydroxycholesterol were loaded onto NuPage Bis-Tris 4-12% gradient gels (Invitrogen, Carlsbad, Calif.) and run according to manufacturer's specifications. Proteins were transferred to Immobilon-P PVDF membranes (Millipore Corp, Bedford, Mass.). Antibodies (2 mg/ml stock) were from Santa Cruz Biotechnology, Inc. (Santa Cruz, Calif.) and were used according to manufacturer's specifications. Anti-USF1 C20X (catalog number sc-229X) antibody was used at a dilution of 1/600 and anti-USF2 antibodies C20X (catalog number sc862X) and N18X (catalog number sc861X) were used at a dilution of 1/1000.

[2] = system: E-box in the human ABC1 gene promoter; assay: Gel mobility shift assay of E-box (EB) probe with RAW cell nuclear extracts; format: binding; details: nuclear extracts of stimulated versus unstimulated RAW cells
Description: Three double-stranded human ABC1 promoter fragments (Fragment A spanning −171 to −71 bp; Fragment EB spanning −156 to −130 bp and Fragment EB spanning −156 to −130 bp) were end-labeled with […] using T4 polynucleotide kinase (Lofstrand, Gaithersburg Md.). Nuclear extracts were isolated from unstimulated RAW 264.7 cell and HepG2 cell as well as RAW 264.7 cells after stimulation with the same concentrations of cholesterol and 22(R)-Hch shown above (Paragon Bioservices Inc. Baltimore, Md.). One ng (10,000 cpm) of radiolabelled probe was added to 2.5 μg nuclear extract in 20 ul of a 20 mM TRIS gel shift buffer (pH 7.9) containing 60 mM KCl, 0.2 mM EDTA, 0.5 mM DTT, 0.25 mM PMS, 1.3 mM MgCl, 10% glycerol, 3% Ficoll and 3 μg of double-stranded poly (dldC) as described (Previato et al., J Biol Chem, 1991, 266:18958-18963) and incubated for 10 minutes on ice followed by 10 minutes at room temperature. The incubated mixture was loaded on a 6% polyacrylamide gel in 0.25×TBE buffer and electrophoresed at 100 V for 90 min followed by autoradiography. For competition assays, nuclear extracts were preincubated for 10 minutes on ice in a 20 μl reaction mixture in the presence or absence of a 100-200-fold excess of double-stranded DNA competitors for Sp1 (−173 to −155 bp), AP1 (−135 to −155 bp), LXR (−54 to −69 bp) and E-box (−158 to −136 bp) before addition of probe. […]

Row | SMILES | Effect on ABC1 gene transcription (luciferase reporter) (human ABC1 promoter) | Luciferase activity ([1]; Hepa1-6 cells, in the presence of 50 μg/ml cholesterol, cells recovered 16 hours after medium change) | Increase in the activity ([1]; in the presence versus absence of cholesterol) | Normalized activity ([1]; luciferase normalized to β-galactosidase, in the presence of 50 μg/ml cholesterol) | Expression of USF immunoreactive bands (43 and 44 KDa) (USF1 and USF2) | Gel shift banding patterns with EB probe [2]
1 | CC1=C(/C=C/C(C)=C\C=C\C(C)=C\C(=O)O)C(C)(C)CCC1 [CRA, 9-cis-retinoic acid] | stimulatory effect | – | – | – | – | –
2 | CC(C)CCC[C@@H](C)[C@H]1CC[C@H]2[C@@H]3CC=C4C[C@@H](O)CC[C@]4(C)[C@H]3CC[C@]12C [cholesterol] | – | 500000 RLU | 1.82 | 13.25 | not altered | No differences
3 | CC(C)CC[C@@H](O)[C@@H](C)[C@H]1CC[C@H]2[C@@H]3CC=C4C[C@@H](O)CC[C@]4(C)[C@H]3CC[C@]12C [oxysterols, 22-(R)-hydroxycholesterol] | stimulatory effect | – | – | – | not altered | No differences
